Results as given in US20240101568A1, “NOVEL BENZAZEPINE SPIRO DERIVATIVE” (SHANGHAI JEMINCARE PHARMACEUTICAL CO., LTD, priority 2020, published 2024).
Where two headings read alike, the source gives them in different places. One block for each molecule: values may come before it.

Key:
LLC-PK1 cells = assay: Compound proliferation inhibition assay on LLC-PK1 cells (vasopressin-induced proliferation); type: cell-based, Porcine; conditions: AVP 10 nM, verapamil 5 μM, 48 hr, FIG. 1
Description: Experimental Example 3: Compound Proliferation Inhibition Assay on LLC-PK1 Cells
(1) Cell • Porcine kidney epithelial cells LLC-PK1: purchased from ATCC, Cat #CL-101
(2) Reagents: • Medium 199, Gibco (Cat #11150059) • Fetal Bovine Serum (FBS), Australia, Jitai (Cat #FND500) • Trypsin-EDTA (0.25%), phenol red, Gibco (Cat #25200072) • PBS, pH 7.4, Gibco (Cat #10010031) • DMSO (Dimethyl Sulfoxide), Sigma (Cat #D8418) • Poly-D-lysine, Gibco (Cat #A3890401) • Vasopressin AVP: Ji'er Biochemical Co. Ltd. Customization • Verapamil hydrochloride, MCE (Cat #HY-A0064) • AlamarBlue™ HS Cell Viability Reagent, Invitrogen (Cat #A50100) […]
LLC-PK1 cells were cultured in M199 medium supplemented with 10% fetal bovine serum at 37° C. with 5% CO2. […] LLC-PK1 cells were trypsinized, resuspended in serum-free M199 after centrifugation, counted, diluted to a cell suspension of 1×10^5/mL in serum-free M199 culture medium, and FBS was added to a final concentration of 1%. […] On the fifth day, the culture solution was carefully suctioned away, the cells were washed once with 200 μL PBS, 90 μL of M199 serum-free culture solution was carefully added, then 10 μL Alamarblue reagent was added, and the mixture was centrifuged at 300 rpm for 1 min, incubated at 37° C. for 2 h, and then detected. […]
Data quality control: S/B, i.e., Max well average/Min well average, is calculated and […] is considered QC pass.

[1] = target: T1, human vasopressin receptor V2R (Homo sapiens, UniProt P30518); assay: IC50 assay for inhibition of vasopressin-induced V2R activation (cAMP increase, HTRF) in HeLa-V2R cells; type: cell-based
T1 construct: host or cells: HeLa (lentivirus infection, puromycin selection)
T1 sequence (P30518 whole entry): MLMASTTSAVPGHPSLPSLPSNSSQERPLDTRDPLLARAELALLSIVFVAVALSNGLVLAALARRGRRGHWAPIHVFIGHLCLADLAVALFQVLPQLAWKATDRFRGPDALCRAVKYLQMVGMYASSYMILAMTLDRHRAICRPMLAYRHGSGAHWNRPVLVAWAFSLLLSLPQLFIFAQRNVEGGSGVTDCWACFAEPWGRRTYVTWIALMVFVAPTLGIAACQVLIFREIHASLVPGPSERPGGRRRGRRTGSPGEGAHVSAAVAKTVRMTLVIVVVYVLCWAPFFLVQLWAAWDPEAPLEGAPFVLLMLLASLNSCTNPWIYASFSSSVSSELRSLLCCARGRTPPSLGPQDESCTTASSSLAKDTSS
Description: Experimental Example 1: IC50 Assay for Inhibition of Vasopressin-Induced Vasopressin Receptor V2R Activation by Compounds
Hela cell line stably expressing the human vasopressin receptor V2R (HeLa-V2R): it was constructed by Shanghai Jikai Gene Chemical Technology Co. Ltd. using lentivirus infection method and stably expressed human V2R as verified by qPCR.
DMEM cell culture medium: brand: Gibco, code: 11995065; fetal bovine serum: brand: Jitai, article No: FND500; 0.25% Trypsin: brand: Cibco, code: 25200072; Puromycin Dihydrochloride: brand: Gibco, code: A1113803; cAMP-GS HIRANGE KIT: brand: Cisbio, code: 62AM6PEC; IBMX: brand: Sigma, code: i5879; vasopressin AVP: Ji'er Biochemical (Shanghai) Co. Ltd.
Hela-V2R cells were cultured in a DMEM medium supplemented with 10% fetal bovine serum at 37° C. with 5% CO2 and continuously selected for V2R-expressing cells by adding 2 μg/mL puromycin. On the day of the experiment, cells were trypsinized, washed twice with stimulation buffer from the cAMP-GS HIRANGE kit, resuspended, and counted to 1.6×10^6 cells/ml, and IBMX was added to a final concentration of 0.5 mM. 5 μL of cell suspension/well was transferred to a 384-well plate and 2.5 μL of test compound or DMSO (minimum Min, maximum Max control) was added at various concentrations (10 μM in a 3-fold dilution, 10 concentration gradients) to the corresponding wells. After 30 minutes of incubation at room temperature, 2.5 μL vasopressin AVP solution was added to a final concentration of 2.25 nM to the test compound wells and 2.5 μL stimulation buffer to the minimum wells and incubated for 60 minutes at 25 C. Simultaneously cAMP standard sample (3-fold dilution from 5.6 μM, 10 concentration points) was prepared, and 10 μL of cAMP standard sample was transferred to corresponding well of a 384-well plate. The cAMP-d2 fluorescence and anti-cAMP antibody probes provided in the kit were diluted 20-fold with lysis buffer in the cAMP-GS HIRANGE kit, 5 μL of each was taken and added into each well of the 384-well plate in turn, mixed well with simple centrifugation performed, and incubated at 25° C. for 2 hours and then detect. Sample detection: fluorescence intensity was measured at 615 nm and 665 nm using the HTRF method in the Envision plate reader. Two duplicate wells were made for each sample to be tested, and 32 duplicate wells were made for Min and Max respectively.
The fluorescence intensity ratio FI665/615 at the wavelengths of 665 nm and 615 nm was calculated for each well sample. The standard curve was obtained by fitting the “log(inhibitor) vs response−variable slope (four parameters)” model in Prism 8.0 software with the logarithm of standard concentration as X and FI665/615X1000 as Y value. With the test well F1665/615X1000 as a Y value, the cAMP concentration corresponding to each sample was calculated according to the above standard curve in Prism 8.0 software.
The % Inhibition (inhibition percentage) was calculated as follows:
% inhibition=(Cmax−Ccmpd)/(Cmax−Cmm)×100
Where Cmax is the average calculated cAMP concentration in all maximum wells; Cmm is the average calculated cAMP concentration in all […]; Ccmpd is the calculated cAMP concentration of the test compound.
IC50s were calculated by non-linear regression using the “log(inhibitor) vs response−variable slope (four parameters)” model in Prism 8.0 software with % Inhibition (inhibition percentage) as Y value and log value of compound concentration as X, where Y=Bottom+(Top−Bottom)/(1+10^((Log IC50−X)*Hill Slope)).

in vivo = assay: in vivo; set-up: species or system mice
Procedure: Experimental Example 2: In Vivo Pharmacokinetic Experiments with Compounds of the Disclosure
This study evaluated in vivo pharmacokinetics in mice by intravenous and oral administration.
Experimental methods and conditions: male CD1 mice, aged 6-8 weeks, had free access to drinking water and were given a single intravenous injection of test compound 1 mg/Kg (vehicle 5% DMSO/10% Solutol/85% Saline), 5 min, 15 min, 30 min, 1 hr, 2 hr, 4 hr, 8 hr, 24 hr or oral gavage administration of 10 mg/kg (vehicle 5% DMSO/10% Solutol/85% Saline) after administration. Orbital blood was collected at 15 min, 30 min, 1 hr, 2 hr, 4 hr, 6 hr, 8 hr, and 24 hr after administration. No less than 50 μL of each sample was collected. Heparin sodium was used for anticoagulation. After collection, the sample was placed on ice, and the plasma was separated and tested within 1 hour. Plasma concentrations were determined by liquid-phase tandem mass spectrometry (LC/MS/MS). Pharmacokinetic parameters were calculated using Phoenix WinNonlin software. The results are shown in Tables 2 and 3 with Tofapriptan as control 1.

[2] = Human V2R Hela-Stable cell line OE2, AVP 2.25 nM, read-out: IC50 (nM), inhibition of the cAMP increase

Compound: O=C(Nc1ccc(C(=O)N2CCC(F)(F)C3(CN3)c3cc(Cl)ccc32)cn1)c1ccccc1C(F)(F)F (centres unmarked) [Compound 1]
inhibitory effect on the proliferation of LLC-PK1 cells (LLC-PK1 cells; compared with control 1): stronger than that of control 1
pro-proliferation effect on LLC-PK1 cells (LLC-PK1 cells): no pro-proliferation effect
IC50 [1]: 10.9 nM
AUC0-inf (in vivo; male, CD1, mouse, iv, 1 mg/kg): 719 ng·h/mL
clearance (in vivo; male, CD1, mouse, iv, 1 mg/kg): 23.2 mL/min/kg
half-life (in vivo; male, CD1, mouse, iv, 1 mg/kg): 55.2 min
AUC0-inf (in vivo; male, CD1, mouse, po, 10 mg/kg): 4060 ng·h/mL
Cmax (in vivo; male, CD1, mouse, po, 10 mg/kg): 1260 ng/mL
bioavailability (in vivo; male, CD1, mouse, po, 10 mg/kg): 56%
half-life (in vivo; male, CD1, mouse, po, 10 mg/kg): 36 min

Compound: Cc1ccccc1C(=O)Nc1ccc(C(=O)N2CCC(F)(F)C3(CN3)c3cc(Cl)ccc32)c(C)c1 (centres unmarked) [Compound 2]
IC50 [1, 2]: 9.35 nM

Compound: Cc1ccccc1C(=O)Nc1ccc(C(=O)N2CCCC3(CN3)c3cc(Cl)ccc32)cn1 (centres unmarked) [Compound 4]
IC50 [1, 2]: 3.14 nM

Compound: O=C(Nc1ccc(C(=O)N2CCCC3(CN3)c3cc(Cl)ccc32)cn1)c1ccccc1C(F)(F)F (centres unmarked) [Compound 5]
IC50 [1, 2]: 4.67 nM

Compound: Cc1cc(NC(=O)c2ccccc2Cl)ccc1C(=O)N1CCCC2(CN2)c2cc(Cl)ccc21 (centres unmarked) [Compound 8]
IC50 [1, 2]: 5.01 nM

Compound: Cc1ccccc1C(=O)Nc1ccc(C(=O)N2CCCC3(CN3)c3cc(Cl)ccc32)c(C)c1 (centres unmarked) [Compound 9]
IC50 [1, 2]: 4.88 nM

IC50 [1, 2]: 11.2 nM
Compound: Cc1ccccc1C(=O)Nc1ccc(C(=O)N2CCCC3(CC3)c3cc(Cl)ccc32)c(C)c1 [Compound 16]

IC50 [1, 2]: 10.4 nM
Compound: Cc1ccccc1C(=O)Nc1ccc(C(=O)N2CCCC3(CCC3)c3cc(Cl)ccc32)c(C)c1 [Compound 17]

Compound: Cc1ccccc1C(=O)Nc1ccc(C(=O)N2CCC(F)(F)C3(CN3)c3cc(Cl)ccc32)cn1 (centres unmarked) [Compound 20]
IC50 [1, 2]: 5.54 nM

Compound: O=C(Nc1ccc(C(=O)N2CCC(F)(F)C3(CN3)c3cc(Cl)ccc32)cn1)c1ccccc1Cl (centres unmarked) [Compound 21]
IC50 [1, 2]: 4.51 nM

AUC0-inf (in vivo; mouse, iv, 1 mg/kg): 367 ng·h/mL
Cl (in vivo; mouse, iv, 1 mg/kg): 45.5 mL/min/kg
T1/2 (in vivo; mouse, iv, 1 mg/kg): 31.8 min
AUC0-inf (in vivo; mouse, po, 10 mg/kg): 1613 ng·h/mL
Cmax (in vivo; mouse, po, 10 mg/kg): 1307 ng/mL
F (%) (in vivo; mouse, po, 10 mg/kg): 44%
T1/2 (in vivo; mouse, po, 10 mg/kg): 94.8 min
Compound: Cc1ccccc1C(=O)Nc1ccc(C(=O)N2CCCC(O)c3cc(Cl)ccc32)c(C)c1 (centres unmarked) [Control 1, Tofapriptan, reference compound]
